From the NIST ThermoML archive (doi:10.1016/j.jct.2019.03.005)
Numbers after ± are expanded uncertainties.

Conditions: Liquid, Frequency=3 MHz, Pulse-echo method

Work on `CC(C)c1ccccc1` [isopropylbenzene] yielded a speed of sound (298.15 K, 100 kPa) of 1309.1 ± 1.6 m/s, a speed of sound (298.15 K, 20100 kPa) of 1406.9 ± 1.7 m/s and a speed of sound (298.15 K, 40100 kPa) of 1491.7 ± 1.8 m/s. It also gave a speed of sound (298.15 K, 60100 kPa) of 1566.8 ± 1.9 m/s, a speed of sound (298.15 K, 80100 kPa) of 1634.8 ± 1.9 m/s and a speed of sound (298.15 K, 100100 kPa) of 1697.4 ± 2 m/s. The speed of sound (313.15 K, 100 kPa) was 1247.6 ± 1.5 m/s, the speed of sound (313.15 K, 20100 kPa) was 1351.3 ± 1.6 m/s and the speed of sound (313.15 K, 40100 kPa) was 1440 ± 1.7 m/s. The speed of sound (313.15 K, 60100 kPa) was 1518.3 ± 1.8 m/s, the speed of sound (313.15 K, 80100 kPa) was 1588.9 ± 1.9 m/s and the speed of sound (313.15 K, 100100 kPa) was 1653.3 ± 1.9 m/s. It also gave a speed of sound (333.15 K, 100 kPa) of 1168.5 ± 1.5 m/s, a speed of sound (333.15 K, 20100 kPa) of 1280.5 ± 1.6 m/s and a speed of sound (333.15 K, 40100 kPa) of 1374.7 ± 1.7 m/s. The speed of sound (333.15 K, 60100 kPa) was 1457.2 ± 1.7 m/s, the speed of sound (333.15 K, 80100 kPa) was 1530.9 ± 1.8 m/s and the speed of sound (333.15 K, 100100 kPa) was 1598 ± 1.9 m/s. It also gave a speed of sound (353.15 K, 100 kPa) of 1091.8 ± 1.4 m/s, a speed of sound (353.15 K, 20100 kPa) of 1213.2 ± 1.5 m/s and a speed of sound (353.15 K, 40100 kPa) of 1313.2 ± 1.6 m/s. For the same compound, the speed of sound (353.15 K, 60100 kPa) was 1399.6 ± 1.7 m/s, the speed of sound (353.15 K, 80100 kPa) was 1476.5 ± 1.8 m/s and the speed of sound (353.15 K, 100100 kPa) was 1546 ± 1.8 m/s. It also gave a speed of sound (373.15 K, 100 kPa) of 1017.8 ± 1.3 m/s, a speed of sound (373.15 K, 20100 kPa) of 1149.2 ± 1.5 m/s and a speed of sound (373.15 K, 40100 kPa) of 1255.1 ± 1.6 m/s. For the same compound, the speed of sound (373.15 K, 60100 kPa) was 1345.6 ± 1.6 m/s, the speed of sound (373.15 K, 80100 kPa) was 1425.6 ± 1.7 m/s and the speed of sound (373.15 K, 100100 kPa) was 1497.4 ± 1.8 m/s. It also gave a speed of sound (393.15 K, 100 kPa) of 945.6 ± 1.3 m/s, a speed of sound (393.15 K, 20100 kPa) of 1088.1 ± 1.4 m/s and a speed of sound (393.15 K, 40100 kPa) of 1200.1 ± 1.5 m/s. It also gave a speed of sound (393.15 K, 60100 kPa) of 1294.7 ± 1.6 m/s, a speed of sound (393.15 K, 80100 kPa) of 1377.6 ± 1.7 m/s and a speed of sound (393.15 K, 100100 kPa) of 1451.6 ± 1.7 m/s. The speed of sound (413.15 K, 100 kPa) was 875 ± 1.2 m/s, the speed of sound (413.15 K, 20100 kPa) was 1029.6 ± 1.3 m/s and the speed of sound (413.15 K, 40100 kPa) was 1147.8 ± 1.5 m/s. It also gave a speed of sound (413.15 K, 60100 kPa) of 1246.5 ± 1.5 m/s, a speed of sound (413.15 K, 80100 kPa) of 1332.1 ± 1.6 m/s and a speed of sound (413.15 K, 100100 kPa) of 1408.6 ± 1.7 m/s. It also gave a speed of sound (433.15 K, 10100 kPa) of 897.7 ± 1.2 m/s, a speed of sound (433.15 K, 20100 kPa) of 974 ± 1.3 m/s and a speed of sound (433.15 K, 40100 kPa) of 1098.9 ± 1.4 m/s. It also gave a speed of sound (433.15 K, 60100 kPa) of 1201.3 ± 1.5 m/s, a speed of sound (433.15 K, 80100 kPa) of 1289.9 ± 1.6 m/s and a speed of sound (433.15 K, 100100 kPa) of 1368.6 ± 1.7 m/s.
In the case of `CC(C)(C)c1ccccc1` [(1,1-dimethylethyl)benzene], the speed of sound (298.15 K, 100 kPa) is reported as 1316.4 ± 1.5 m/s, the speed of sound (298.15 K, 20100 kPa) is reported as 1415.8 ± 1.6 m/s and the speed of sound (298.15 K, 40100 kPa) is reported as 1501.7 ± 1.7 m/s. The speed of sound (298.15 K, 60100 kPa) was 1578.5 ± 1.7 m/s, the speed of sound (298.15 K, 80100 kPa) was 1647.9 ± 1.8 m/s and the speed of sound (298.15 K, 100100 kPa) was 1711.7 ± 1.9 m/s. For the same compound, the speed of sound (313.15 K, 100 kPa) was 1255.3 ± 1.4 m/s, the speed of sound (313.15 K, 20100 kPa) was 1360.3 ± 1.5 m/s and the speed of sound (313.15 K, 40100 kPa) was 1450.3 ± 1.6 m/s. The speed of sound (313.15 K, 60100 kPa) was 1529.8 ± 1.7 m/s, the speed of sound (313.15 K, 80100 kPa) was 1601.7 ± 1.8 m/s and the speed of sound (313.15 K, 100100 kPa) was 1667.3 ± 1.8 m/s. For the same compound, the speed of sound (333.15 K, 100 kPa) was 1176.9 ± 1.3 m/s, the speed of sound (333.15 K, 20100 kPa) was 1290.1 ± 1.4 m/s and the speed of sound (333.15 K, 40100 kPa) was 1385.4 ± 1.5 m/s. The speed of sound (333.15 K, 60100 kPa) was 1469 ± 1.6 m/s, the speed of sound (333.15 K, 80100 kPa) was 1543.9 ± 1.7 m/s and the speed of sound (333.15 K, 100100 kPa) was 1612.5 ± 1.8 m/s. It also gave a speed of sound (353.15 K, 100 kPa) of 1101.8 ± 1.2 m/s, a speed of sound (353.15 K, 20100 kPa) of 1223.5 ± 1.4 m/s and a speed of sound (353.15 K, 40100 kPa) of 1324.4 ± 1.5 m/s. It also gave a speed of sound (353.15 K, 60100 kPa) of 1411.8 ± 1.6 m/s, a speed of sound (353.15 K, 80100 kPa) of 1489.6 ± 1.6 m/s and a speed of sound (353.15 K, 100100 kPa) of 1560.2 ± 1.7 m/s. The speed of sound (373.15 K, 100 kPa) was 1029.9 ± 1.2 m/s, the speed of sound (373.15 K, 20100 kPa) was 1161.2 ± 1.3 m/s and the speed of sound (373.15 K, 40100 kPa) was 1267.7 ± 1.4 m/s. The speed of sound (373.15 K, 60100 kPa) was 1359 ± 1.5 m/s, the speed of sound (373.15 K, 80100 kPa) was 1439.6 ± 1.6 m/s and the speed of sound (373.15 K, 100100 kPa) was 1512.4 ± 1.7 m/s. It also gave a speed of sound (393.15 K, 100 kPa) of 959.3 ± 1.1 m/s, a speed of sound (393.15 K, 20100 kPa) of 1101.1 ± 1.2 m/s and a speed of sound (393.15 K, 40100 kPa) of 1213.3 ± 1.3 m/s. The speed of sound (393.15 K, 60100 kPa) was 1308.5 ± 1.5 m/s, the speed of sound (393.15 K, 80100 kPa) was 1392 ± 1.5 m/s and the speed of sound (393.15 K, 100100 kPa) was 1466.9 ± 1.6 m/s. For the same compound, the speed of sound (413.15 K, 100 kPa) was 890.9 ± 1 m/s, the speed of sound (413.15 K, 20100 kPa) was 1042.6 ± 1.2 m/s and the speed of sound (413.15 K, 40100 kPa) was 1161.1 ± 1.3 m/s. It also gave a speed of sound (413.15 K, 60100 kPa) of 1260.2 ± 1.4 m/s, a speed of sound (413.15 K, 80100 kPa) of 1346.6 ± 1.5 m/s and a speed of sound (413.15 K, 100100 kPa) of 1423.8 ± 1.6 m/s. It also gave a speed of sound (433.15 K, 100 kPa) of 823.7 ± 0.9 m/s, a speed of sound (433.15 K, 20100 kPa) of 987.2 ± 1.1 m/s and a speed of sound (433.15 K, 40100 kPa) of 1112.1 ± 1.2 m/s. It also gave a speed of sound (433.15 K, 60100 kPa) of 1215.1 ± 1.4 m/s, a speed of sound (433.15 K, 80100 kPa) of 1304.3 ± 1.4 m/s and a speed of sound (433.15 K, 100100 kPa) of 1383.6 ± 1.5 m/s.
